Test results: publication PMC6986443, “T‐495, a novel low cooperative M1 receptor positive allosteric modulator, improves memory deficits associated with cholinergic dysfunction and is characterized by low gastrointestinal side effect risk” (Pharmacology Research & Perspectives, 2020)

Experiments:
[1] = system: IP1 production in the rat hippocampus; test: In vivo IP1 assay, rat hippocampus; conditions: LiCl 10 mmol/kg s.c., vs vehicle
Experimental: (§1) Eight‐week‐old Long‐Evans rats, 8‐ to 9‐week‐old C57BL/6J mice, and 22‐ or 29‐week‐old M1R KO mice and their WT littermates were used in this study. On the day of the experiment, animals were placed in individual cages and acclimated for more than 1 hour. A test compound or vehicle was administered 2 hours before the animals were sacrificed. […] LiCl (10 mmol/kg, s.c.) was injected 1 hour before sacrifice. In the repeated administration study, a test compound was administered to mice once daily for 13 days; on day 14, animals were treated with a test compound and LiCl (10 mmol/kg, s.c.) and then sacrificed. Animals were killed by decapitation, and blood was collected into tubes containing ethylenediaminetetraacetic acid for pharmacokinetic analysis; brains were quickly dissected, frozen on dry ice, and stored at −80°C until analysis. Brain tissues were homogenized in 19 (for rat tissues) or 39 (for mouse tissue) volumes of homogenization buffer (10 mmol/L HEPES pH 7.4, 50 mmol/L LiCl, 150 mmol/L NaCl, and 1% Triton X‐100), and the homogenate was incubated on a rotator for 1 hour, followed by centrifugation. The supernatant was diluted with 39 (for rat tissues) or 19 (for mouse tissues) volumes of dilution buffer (10 mmol/L HEPES pH 7.4, 50 mmol/L LiCl, and 150 mmol/L NaCl). IP1 and protein concentrations in the diluted supernatant were measured using IP‐One HTRF assay kit (Cisbio Bioassays) and BCA Protein Assay Kit (Thermo Fisher Scientific Inc), respectively, according to the manufacturers’ instructions. IP1 production was expressed as the ratio of IP1 to protein concentrations.

[2] = system: ileum segment of ICR mice; test: Spontaneous ileum contraction; parameters: species or system mouse; conditions: 0.01, 0.1, and 1 μmol/L applied cumulatively
Experimental: ICR mice were fasted overnight and sacrificed by decapitation, and the ileum was removed and the luminal contents were gently flushed out with ice‐cold modified Krebs buffer (NaCl, 120.7 mmol/L; KCl, 5.9 mmol/L; NaHCO3, 15.5 mmol/L; MgCl2, 1.2 mmol/L; NaH2PO4, 1.2 mmol/L; CaCl2, 2.5 mmol/L; glucose, 11.5 mmol/L). The ileum segment (approximately 5 mm in length) was suspended in a 10‐mL organ bath filled with oxygenated (95% O2 and 5% CO2) modified Krebs buffer at 37°C. One end of the ileum segment was tied to a hook and the other end was secured with a silk thread to an isometric force transducer (MLT050/A, ADInstruments) connected to a data acquisition system (PowerLab 8/30 ML870 and Octal Bridge Amp ML228, ADInstruments). The ileum segment was subjected to an initial tension of 0.3 to 0.4 g and was allowed to equilibrate for at least 30 minutes. After the equilibration period, spontaneous contractions were measured for 3 minutes (pretreatment) and then increasing concentrations of a test compound (0.01, 0.1, and 1 μmol/L) were cumulatively applied at 3‐minute intervals. LabChart software (ADInstruments) was used to analyze the spontaneous contractions. The mean amplitude of spontaneous contractions at each concentration was normalized to that observed at pretreatment.

[3] = system: IP1 production in the mouse hippocampus; test: In vivo IP1 assay after repeated administration for 13 days; conditions: for Basal IP1 level in the mouse hippocampus: after repeated treatment 10 mg/kg p.o. for 13 days, mean ± SEM, n = 10; for magnitude of IP1 increase in mouse hippocampus after 13 days of pretreatment: pretreatment 10 mg/kg p.o. once daily, vs single administration
Experimental: as §1

[4] = biological target: T1, human M1R (Homo sapiens, UniProt P11229); test: Ca2+ mobilization assay, PAM activity (with EC20 ACh), CHO‐K1 cells; assay type: cell-based; parameters: expressed in transfected cells; host or cells: CHO-K1
T1 sequence (P11229 1-460): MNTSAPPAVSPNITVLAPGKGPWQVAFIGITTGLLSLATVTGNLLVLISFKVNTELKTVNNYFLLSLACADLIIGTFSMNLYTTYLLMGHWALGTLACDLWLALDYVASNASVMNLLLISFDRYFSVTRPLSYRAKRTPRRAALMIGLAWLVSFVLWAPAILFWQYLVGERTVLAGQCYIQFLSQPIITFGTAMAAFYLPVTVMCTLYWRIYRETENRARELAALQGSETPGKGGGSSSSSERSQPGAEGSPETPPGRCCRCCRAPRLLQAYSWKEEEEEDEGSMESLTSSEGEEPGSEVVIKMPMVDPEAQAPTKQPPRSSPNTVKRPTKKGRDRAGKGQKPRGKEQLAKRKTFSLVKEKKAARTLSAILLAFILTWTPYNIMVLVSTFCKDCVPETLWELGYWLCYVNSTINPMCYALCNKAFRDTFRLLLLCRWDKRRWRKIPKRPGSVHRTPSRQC
Experimental: Chinese hamster ovary (CHO)‐K1 cells expressing M1R–M5R were plated on a 96‐well black, clear bottom plate at 30 000 cells/well and incubated at 37°C in an atmosphere of 5% CO2 for 1 day. On the day of the assay, cells were incubated with calcium dye buffer (Hanks’ Balanced Salt Solution (HBSS) containing 20 mmol/L HEPES, 0.1% fatty acid‐free bovine serum albumin (BSA), 0.08% pluronic F127 (Dojindo Laboratories), 2.5 μg/mL Fluo‐4 (Dojindo Laboratories), and 1.25 mmol/L probenecid (Dojindo Laboratories)) for 30 minutes at 37°C in an atmosphere of 5% CO2 and then incubated for 30 minutes at room temperature. To measure Ca^2+ mobilization using CellLux (PerkinElmer), cells were stimulated with T‐495 or MK‐7622 (0.01‐1000 nmol/L for PAM activity; 0.3‐10 000 nmol/L for agonist activity) in assay buffer (HBSS containing 20 mmol/L HEPES and 0.1% fatty acid‐free BSA) with or without an EC20 concentration of ACh. The inflection point (IP) and EC50 values were calculated using the following equation by GraphPad Prism 5 software (GraphPad Software Inc): Y=Bottom+(Top-Bottom)/1+10^(Log IPorEC50-X×HillSlope))
where X and Y are the log concentration of a compound and the percentage of Ca^2+ response, respectively, and Top and Bottom are the upper and lower plateaus, respectively.

[5] = system: rats pretreated with scopolamine; test: Novel object recognition (NOR) test, scopolamine‐induced memory impairment; assay type: in vivo, rat; conditions: for scopolamine‐induced NDI reduction, retention trial: scopolamine 0.1 mg/kg s.c.
Experimental: On Day 1, 7‐week‐old Long‐Evans rats were individually placed into the test box fabricated from polyvinyl chloride (40‐cm square with 50‐cm high walls) without any objects for 10 minutes. […] In the acquisition trial, each rat was placed in the test box containing two identical objects and allowed to explore them for 3 minutes. After an intertrial interval of 4 hours, each rat was again placed in the same test box containing one familiar and one novel objects and allowed to explore both for 3 minutes (retention trial). The behavior of each animal during the acquisition and retention trials was recorded on video, and the time spent exploring each object (licking, sniffing, or touching the object with the forepaws) was scored manually. Results were presented as novelty discrimination index (NDI) calculated as follows: the exploration time for the novel object/the exploration time for both objects × 100.

Row | SMILES | IP1 production in the rat hippocampus ([1]; 10 mg/kg p.o.) | IP1 production in the rat hippocampus ([1]; 30 mg/kg p.o.) | concentration at which spontaneous ileum contraction was increased [2] | Basal IP1 level in the mouse hippocampus [3] | magnitude of IP1 increase in mouse hippocampus after 13 days of pretreatment [3] | EC50 [4] | scopolamine‐induced NDI reduction, retention trial ([5]; 0.3 mg/kg p.o.) | scopolamine‐induced NDI reduction, retention trial ([5]; 1 mg/kg p.o.) | scopolamine‐induced NDI reduction, retention trial ([5]; 3 mg/kg p.o.) | scopolamine‐induced NDI reduction, combination with donepezil ([5]; T‐495 0.3 mg/kg + donepezil 0.1 mg/kg p.o.) | scopolamine‐induced NDI reduction, retention trial ([5]; 10 mg/kg p.o.) | scopolamine‐induced NDI reduction, combination with donepezil ([5]; MK‐7622 1 mg/kg + donepezil 0.1 mg/kg p.o.)
1 | Cc1c(Cc2ccc(Cl)nc2)cc2c(c1Cl)OCN([C@H]1CCC[C@@H]1O)C2=O [T‐495, 8‐chloro‐6‐((6‐chloropyridin‐3‐yl)methyl)‐3‐((1S,2S)‐2‐hydroxycyclopentyl)‐7‐methyl‐2,3‐dihydro‐4H‐1,3‐benzoxazin‐4‐one] | significantly increased | significantly increased | 1 µmol/L | 1.09± 0.03 nmol/mg protein | comparable to those after single administration | 2.29 nM | subeffective | significantly reversed | significantly reversed | significantly improved |  | 
2 | Cc1ccc(Cc2cc3c(=O)n([C@H]4CCCC[C@@H]4O)cnc3c3ccccc23)cn1 [MK‐7622, 3‐((1S,2S)‐2‐hydroxycyclohexyl)‐6‐((6‐methylpyridin‐3‐yl)methyl)benzo[h]quinazolin‐4(3H)‐one, reference compound] | significantly increased |  | ≤ 0.01 µmol/L | 0.99± 0.05 nmol/mg protein | comparable to those after single administration | 1.32 nM |  | subeffective | significantly reversed |  | significantly reversed | could not reverse
